Reference: US20240376094A2, “SELECTIVE BCL-XL PROTAC COMPOUNDS AND METHODS OF USE” (Les Laboratoires Servier, priority 2021, published 2024)

Experiments:
Type in all cases: cell-based
NCI-H1650 = assay: CellTiter-Glo 3D proliferation assay, NCI-H1650 spheroids; conditions: Homo sapiens, NCI-H1650, 120 h, 5 days; for Emax: read-out: NCI-H1650 Span (Amax)
Method: (§1) The BCL-xL degrader compounds were tested against two endogenous cancer cell lines: • COR-L105: ECACC No. 92031918 cultured in RPMI-1640+10% FBS • NCI-H1650: (ATCC No. CRL-5883 cultured in RPMI-1640+10% FBS
(§2) The ability of the BCL-xL degrader low molecular weight compounds to inhibit cell proliferation and survival was assessed using the Promega CellTiter-Glo® proliferation assay.
(§3) Cell lines were cultured in media that is optimal for their growth at 5% CO2, 37° C. in a tissue culture incubator. Prior to seeding for the proliferation assay, the cells were split at least 2 days before the assay to ensure optimal growth density. On the day of seeding, adherent cells were lifted off tissue culture flasks using 0.25% trypsin. Cell viability and cell density were determined using a cell counter (Vi-Cell XR Cell Viability Analyzer, Beckman Coulter). Cells with higher than 85% viability were seeded for the assay.
(§4) The COR-105 cell line was seeded in white, clear bottom 384-well TC treated plates (Corning cat. #3765). Cells were seeded at a density of 1,000 cells per well in 45 μL of standard growth media. Plates were incubated at 5% CO2, 37° C. overnight in a tissue culture incubator. The NCI-H1650 cell line was seeded in black, clear round bottom 384-well ultra-low attachment spheroid microplates (Corning cat. #3830). Cells were seeded at a density of 3,000 cells per well in 45 uL of standard growth media. Plates were spun in a centrifuge for 5 minutes and 1,000 RPM. Plates were incubated at 5% CO2, 37° C. for 72 hours in a tissue culture incubator.
(§5) On the day of dosing, BCL-xL degrader low molecular weight compounds were prepared at 1 OX in standard growth media. The prepared drug treatments were then added to the cells resulting in final concentrations of 0.508 nM-10 μM and a final volume of 50 μL per well. Each drug concentration was tested in quadruplets. Plates were incubated at 5% CO2, 37° C. for 5 days in a tissue culture incubator.
(§6) For COR-L105 plates, cell viability was assessed through the addition of 25 μL of CellTiter Glo® (Promega, cat #G7573), a reagent which lyses cells and measures total adenosine triphosphate (ATP) content. Plates were incubated at room temperature for 10 minutes to stabilize luminescent signals prior to reading with a luminescence reader (EnVision Multilabel Plate Reader, PerkinElmer). For NCI-H1650 plates, cell viability was assessed through the addition of 40 μL of CellTiter Glo® 3D Cell Viability Assay substrate (Promega, cat #G9681), a reagent which lyses cells and measures total adenosine triphosphate (ATP) content. Wells were mixed thoroughly and plates were incubated at room temperature for 30 minutes to stabilize luminescent signals prior to reading using a luminescence reader (EnVision Multilabel Plate Reader, PerkinElmer).
(§7) To evaluate the effect of the drug treatments, luminescent counts from wells containing untreated cells (100% viability) were used to normalize treated samples. A variable slope model was applied to fit a nonlinear regression curve to the data in GraphPad PRISM version 7.02 software. IC50 and Amax values were extrapolated from the resultant curves. The concentrations of treatment required to inhibit 50% of cell growth or survival (IC50) were calculated with representative IC50 values of the cell lines tested summarized in Table 11.

COR-L105 = assay: CellTiter-Glo proliferation assay, COR-L105; conditions: Homo sapiens, COR-L105, 120 h, COR-L105, 5 days; for Emax: read-out: COR-L105 Span (max)
Method: as §1, §2, §3, §4, §5, §6, §7

HiBiT-tagged BCL-xL = target: T1, HiBiT-tagged BCL-xL (Homo sapiens, UniProt Q07817); assay: NCI-H1650 BCL-xL protein levels, Nano-Glo HiBiT Lytic Detection; conditions: NCI-H1650 expressing HiBiT-tagged BCL-xL, overnight incubation, read-out: Bcl-xl HIBIT NCIH1650 DC50
T1 construct: expressed in transfected cells; host or cells: NCI-H1650 (ATCC No. CRL-5883), engineered HiBiT cell line
Outline: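 NCI-H1650 cells expressing HiBiT-tagged BCL-xL (5000/well) were treated overnight at 37° C with 10 concentrations, final 0.508 nM-10 μM, in triplicate. Remaining BCL-xL measured by Nano-Glo HiBiT lytic luminescence, normalized to untreated cells; 50% values by four-parameter logistic fit.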

[1] = tested on: EBC-1 lung cancer cell line; assay: EBC-1 cell proliferation, CellTiter-Glo assay; conditions: Homo sapiens, 120 h; Ebc-1 cell viability, CTG assay, 5 days of treatment; read-out: CTG 5 day Ebc1 GI50
Outline: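 EBC-1 cells seeded at 1000 per well overnight, then exposed to 10-point dilutions (0.508 nM–10 μM final) for 5 days at 37 °C, in triplicate. ATP luminescence by CellTiter-Glo, normalised to untreated wells; GI50 from four-parameter logistic fit, runs valid only with at least one doubling.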

Bcl-xL = target: T2, Bcl-xL (Homo sapiens, UniProt Q07817); assay: HCT116 Bcl-xL degradation, capillary-based immunoassay (WES); conditions: HCT116, 24 h, 9-point serial dilution
T2 construct: Measured levels of Bcl-xL protein of HCT116 cells treated with the tested compounds; host or cells: HCT116
Outline: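 HCT116 cells treated 24 h with compound at 10/100 nM and/or 9-point dilution (quadruplicates), then lysed. Bcl-xL measured by capillary WES immunoassay, normalized to cofilin and expressed as % of untreated cells. DC50 from four-parameter curve fit.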

MOLT-4 cells = assay: MOLT-4 cell viability, CTG assay; conditions: Homo sapiens, MOLT-4, 48 h
Outline: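 Cells grown in RPMI 1640 with 10% FBS at 37° C, 5% CO2, then exposed to compounds for 48 h (11-point 5-fold dilution, triplicates). ATP measured by CellTiter-Glo luminescence; IC50 from four-parameter fit versus control, mean of ≥2 independent experiments.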

T2 sequence (Q07817 whole entry): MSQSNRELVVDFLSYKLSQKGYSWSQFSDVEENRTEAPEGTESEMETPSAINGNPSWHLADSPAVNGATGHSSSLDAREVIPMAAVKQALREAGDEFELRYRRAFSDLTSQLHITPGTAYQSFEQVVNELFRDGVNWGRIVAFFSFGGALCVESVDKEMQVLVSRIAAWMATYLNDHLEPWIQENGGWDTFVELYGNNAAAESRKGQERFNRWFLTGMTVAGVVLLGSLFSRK
T1 sequence (Q07817 whole entry): as above

| IC50 (NCI-H1650) [nM] | DC50 (HiBiT-tagged BCL-xL) [nM] | GI50 [1] [nM] | DC50 (Bcl-xL) [nM] | IC50 (MOLT-4 cells) [nM] | SMILES | Emax (NCI-H1650) [%] | IC50 (COR-L105) [nM] | Emax (COR-L105) [%] |
| --- | --- | --- | --- | --- | --- | --- | --- | --- |
| 302 |  |  |  |  | Cc1ncsc1-c1ccc(CNC(=O)[C@@H]2C[C@@H](O)CN2C(=O)[C@@H](NC(=O)C2(F)CC2)C(C)(C)C)c(OCCCCCCCCCCCCN2CCN(CC#Cc3ccc(OCCCc4sc(N5CCCc6c5nnc(Nc5nc7ccccc7s5)c6C)nc4C(=O)O)c(F)c3)CC2)c1 [Example 55, 2-(3-(benzo[d]thiazol-2-ylamino)-4-methyl-6,7-dihydropyrido [2,3-c]pyridazin-8(5H)-yl)-5-(3-(2-fluoro-4-(3-(4-(12-(2-(((2S,4R)-1-((S)-2-(1-fluorocyclopropane-1-carboxamido)-3,3-dimethylbutanoyl)-4-hydroxypyrrolidine-2-carboxamido)methyl)-5-(4-methylthiazol-5-yl)phenoxy)dodecyl)piperazin-1-yl)prop-1-yn-1-yl)phenoxy)propyl)thiazole-4-carboxylic acid] | 78.8 | 1160 | 81 |
| 110 |  |  |  |  | Cc1ncsc1-c1ccc(CNC(=O)[C@@H]2C[C@@H](O)CN2C(=O)[C@@H](NC(=O)C2(F)CC2)C(C)(C)C)c(OCCCCCCCCN2CCN(CC#Cc3ccc(OCCCc4sc(N5CCCc6c5nnc(Nc5nc7ccccc7s5)c6C)nc4C(=O)O)c(F)c3)CC2)c1 [Example 56, 2-(3-(benzo[d]thiazol-2-ylamino)-4-methyl-6,7-dihydropyrido [2,3-c]pyridazin-8(5H)-yl)-5-(3-(2-fluoro-4-(3-(4-(8-(2-(((2S,4R)-1-((S)-2-(1-fluorocyclopropane-1-carboxamido)-3,3-dimethylbutanoyl)-4-hydroxypyrrolidine-2-carboxamido)methyl)-5-(4-methylthiazol-5-yl)phenoxy)octyl)piperazin-1-yl)prop-1-yn-1-yl)phenoxy)propyl)thiazole-4-carboxylic acid] | 84.2 | 473 | 82 |
|  | > 1670 | 3 | 0.986 | 3 | Cc1ncsc1-c1ccc(CNC(=O)[C@@H]2C[C@@H](O)CN2C(=O)[C@@H](NC(=O)C2(F)CC2)C(C)(C)C)c(OCCCCCCCCCCCCCCN(C)CCOC23CC4(C)CC(C)(CC(Cn5ncc(-c6ccc(N7CCCc8c7nnc(Nc7nc9ccccc9s7)c8C)nc6C(=O)O)c5C)(C4)C2)C3)c1 [Example 146, 6-[3-(1,3-benzothiazol-2-ylamino)-4-methyl-6,7-dihydro-5H-pyrido[2,3-c]pyridazin-8-yl]-3-[1-[[3-[2-[14-[2-[[[(2S,4R)-1-[(2S)-2-[(1-fluorocyclopropanecarbonyl)amino]-3,3-dimethyl-butanoyl]-4-hydroxy-pyrrolidine-2-carbonyl]amino]methyl]-5-(4-methylthiazol-5-yl)phenoxy]tetradecyl-methyl-amino]ethoxy]-5,7-dimethyl-1-adamantyl]methyl]-5-methyl-pyrazol-4-yl]pyridine-2-carboxylic acid] |  |  |  |
|  | 1 | 7 | 1.37 | 4.51 | Cc1ncsc1-c1ccc([C@H](C)NC(=O)[C@@H]2C[C@@H](O)CN2C(=O)[C@@H](NC(=O)CCCCCCCCCCCCCN(C)CCOC23CC4(C)CC(C)(CC(Cn5ncc(-c6ccc(N7CCCc8c7nnc(Nc7nc9ccccc9s7)c8C)nc6C(=O)N(C)C)c5C)(C4)C2)C3)C(C)(C)C)cc1 [Example 148, 6-[3-(1,3-benzothiazol-2-ylamino)-4-methyl-6,7-dihydro-5H-pyrido[2,3-c]pyridazin-8-yl]-3-[1-[[3-[2-[[14-[[(1S)-1-[(2S,4R)-4-hydroxy-2-[[(1S)-1-[4-(4-methylthiazol-5-yl)phenyl]ethyl]carbamoyl]pyrrolidine-1-carbonyl]-2,2-dimethyl-propyl]amino]-14-oxo-tetradecyl]-methyl-amino]ethoxy]-5,7-dimethyl-1-adamantyl]methyl]-5-methyl-pyrazol-4-yl]-N,N-dimethyl-pyridine-2-carboxamide] |  |  |  |
|  | > 1670 | 222 | 10.3 | 6.59 | Cc1ncsc1-c1ccc([C@H](C)NC(=O)[C@@H]2C[C@@H](O)CN2C(=O)[C@@H](NC(=O)CCCCCCCCCCCCCN(C)CCOC23CC4(C)CC(C)(CC(Cn5ncc(-c6ccc(N7CCCc8c7nnc(Nc7nc9ccccc9s7)c8C)nc6C(N)=O)c5C)(C4)C2)C3)C(C)(C)C)cc1 [Example 154, 6-[3-(1,3-benzothiazol-2-ylamino)-4-methyl-6,7-dihydro-5H-pyrido[2,3-c]pyridazin-8-yl]-3-[1-[[3-[2-[[14-[[(1S)-1-[(2S,4R)-4-hydroxy-2-[[(1S)-1-[4-(4-methylthiazol-5-yl)phenyl]ethyl]carbamoyl]pyrrolidine-1-carbonyl]-2,2-dimethyl-propyl]amino]-14-oxo-tetradecyl]-methyl-amino]ethoxy]-5,7-dimethyl-1-adamantyl]methyl]-5-methyl-pyrazol-4-yl]pyridine-2-carboxamide] |  |  |  |
|  | 228 | 27 | 14.5 | 6.48 | CNC(=O)c1nc(N2CCCc3c2nnc(Nc2nc4ccccc4s2)c3C)ccc1-c1cnn(CC23CC4(C)CC(C)(C2)CC(OCCN(C)CCCCCCCCCCCCCC(=O)N[C@H](C(=O)N2C[C@H](O)C[C@H]2C(=O)N[C@@H](C)c2ccc(-c5scnc5C)cc2)C(C)(C)C)(C4)C3)c1C [Example 156, 6-[3-(1,3-benzothiazol-2-ylamino)-4-methyl-6,7-dihydro-5H-pyrido[2,3-c]pyridazin-8-yl]-3-[1-[[3-[2-[[14-[[(1S)-1-[(2S,4R)-4-hydroxy-2-[[(1S)-1-[4-(4-methylthiazol-5-yl)phenyl]ethyl]carbamoyl]pyrrolidine-1-carbonyl]-2,2-dimethyl-propyl]amino]-14-oxo-tetradecyl]-methyl-amino]ethoxy]-5,7-dimethyl-1-adamantyl]methyl]-5-methyl-pyrazol-4-yl]-N-methyl-pyridine-2-carboxamide] |  |  |  |
